The values below come from PubChem BioAssay (NCI).

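Following 48 hours of exposure in 96-well plates, responses at five concentrations were used to interpolate endpoints linearly. TGI: total growth inhibition.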 Bounds are passed on as bounds.

Some test systems named below: CCRF-CEM leukemia; HT29 colon; K-562 leukemia; KM12 colon; LOX IMVI melanoma; M14 melanoma; NCI-H522 lung; NCI/ADR-RES ovarian; OVCAR-3 ovarian; RPMI-8226 leukemia; SF-268 CNS; SK-MEL-28 melanoma; SN12C renal; SR leukemia; TK-10 renal.
Assay in all cases: NCI tumour cell line growth inhibition, 48 h

`O=[S@]1c2ccc3ccccc3c2N[C@@H]2[C@H]1[C@H]1C=C[C@@H]2C1`: the TGI is 68.4 µM in the assay with CCRF-CEM leukemia; more than 100 µM with HT29 colon; more than 100 µM with K-562 leukemia; more than 100 µM in the assay on KM12 colon; more than 100 µM with LOX IMVI melanoma; more than 100 µM in the assay with M14 melanoma. Also, the TGI is 55.4 µM with NCI-H522 lung; 99.7 µM with NCI/ADR-RES ovarian; 37.6 µM with OVCAR-3 ovarian; more than 100 µM with RPMI-8226 leukemia; more than 100 µM in the assay on SF-268 CNS; more than 100 µM with SK-MEL-28 melanoma. Further, the TGI in the assay on SN12C renal, in the assay with SR leukemia and in the assay with TK-10 renal was more than 100 µM in each case.

Consider `COc1ccc2c(c1)/C(=C\c1c(Cl)[nH]c3ccccc13)C(=O)N2`, for which the TGI in the assay with CCRF-CEM leukemia worked out at 13.4 µM; in the assay with HT29 colon it was 5.2 µM; in the assay with K-562 leukemia it was 12.2 µM; in the assay on KM12 colon, 15.1 µM; with LOX IMVI melanoma it was 17.5 µM; in the assay on M14 melanoma it was 16.2 µM. The TGI in the assay on NCI-H522 lung was 11.5 µM; with NCI/ADR-RES ovarian, 8.03 µM; with OVCAR-3 ovarian, 23 µM; in the assay on RPMI-8226 leukemia, 16.3 µM; in the assay on SF-268 CNS, 16 µM; in the assay on SK-MEL-28 melanoma it was 8.05 µM. Moreover, the TGI in the assay with SN12C renal stood at 24.7 µM; in the assay on SR leukemia, 8.25 µM; with TK-10 renal it was 23 µM.

Regarding `O=C(NNC(=S)NC1CCCCC1)C12CC3CC(CC(C3)C1)C2`, the TGI with CCRF-CEM leukemia, in the assay with HT29 colon, in the assay on K-562 leukemia, with KM12 colon, in the assay on LOX IMVI melanoma and in the assay with M14 melanoma was more than 100 µM throughout. Moreover, the TGI in the assay with NCI-H522 lung, in the assay with NCI/ADR-RES ovarian, in the assay on OVCAR-3 ovarian, in the assay with RPMI-8226 leukemia, in the assay on SF-268 CNS and with SK-MEL-28 melanoma was more than 100 µM each time. Further, the TGI in the assay with SN12C renal, in the assay with SR leukemia and in the assay with TK-10 renal was more than 100 µM throughout.
